Results reported in patent publication US7799821B2, “Therapeutic compounds” (Allergan, Inc., priority 2004, dated 2010).
Each block holds one compound with its values, some of them ahead of it.

Assays:
Beagle dogs [1] = experiment: Ocular surface hyperemia, dogs; type: in vivo; set-up: key: 0.5: <1 trace; 1 mild; 2: moderate; 3: severe; conditions: score
Protocol: (§1) Ocular surface hyperemia was visually assessed and scored according to a system typically used clinically.
(§2) Ocular surface hyperemia was evaluated at the same time points as intraocular pressure measurement. It should be noted that untreated dog eyes frequently have a pink/red tone. Thus, values of trace or even mild are not necessarily out of the normal range. Similar tests were used to determine ocular surface hyperemia on monkeys and rabbits.

Beagle dogs [2] = experiment: Intraocular pressure (IOP) in dogs, pneumatonometry; type: in vivo; conditions: topical
Protocol: (§3) Intraocular pressure studies in dogs involved pneumatonometry performed in conscious, Beagle dogs of both sexes (10-15 kg). The animals remained conscious throughout the study and were gently restrained by hand. Drugs were administered topically to one eye as a 25 μL volume drop, the other eye received 25 μL vehicle (0.1% (w/v) polysorbate 80; 10 mM TRIS) as a control. Proparacaine (0.1% w/v) was used for corneal anesthesia during tonometry. Intraocular pressure was determined just before drug administration and at 2, 4 and 6 hr thereafter on each day of the 5 day study. Drug was administered immediately after the first IOP reading.
as §3, with “(0.1%” for “(0.1% (w/v)”, “80:10” for “80; 10”, “(0.1%)” for “(0.1% w/v)”

monkeys = experiment: Intraocular pressure (IOP) in monkeys; type: in vivo
rabbits = experiment: Ocular surface hyperemia, rabbits; type: in vivo; conditions: score
Protocol: as §1, §2

HEP3 = target: T1, HEP3 (Homo sapiens, UniProt P43115); experiment: Radioligand binding, EP3; conditions: printed in the HEP3 binding column; read-out: Ki (marked "Ki" in BINDING HEP3)
T1 sequence (P43115 1-390): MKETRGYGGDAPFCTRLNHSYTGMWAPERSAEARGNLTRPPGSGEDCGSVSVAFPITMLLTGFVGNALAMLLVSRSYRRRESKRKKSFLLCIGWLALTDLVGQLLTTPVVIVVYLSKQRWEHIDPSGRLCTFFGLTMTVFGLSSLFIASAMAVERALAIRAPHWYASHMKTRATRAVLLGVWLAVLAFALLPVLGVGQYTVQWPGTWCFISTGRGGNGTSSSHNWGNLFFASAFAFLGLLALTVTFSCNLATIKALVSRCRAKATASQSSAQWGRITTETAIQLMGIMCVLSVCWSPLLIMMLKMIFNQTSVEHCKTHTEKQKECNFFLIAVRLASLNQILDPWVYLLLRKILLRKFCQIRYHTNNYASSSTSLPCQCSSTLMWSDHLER

hEP2/Gqs5 = target: T2, hEP2/Gqs5 (Homo sapiens, UniProt P43116); experiment: FLIPR calcium signal, hEP2; type: cell-based; conditions: FLIPR Ca2+ signal, HEK-293(EBNA); read-out: FUNCTIONAL EC50 HEP2
T2 construct: expressed in transfected cells; host or cells: HEK-293(EBNA)
Summary of the method: (§4)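 HEK-293(EBNA) cells stably expressing the recombinant human receptor were loaded with 2 μM Fluo-4 AM for 45 min and read on FLIPR at 37° C in HBSS-HEPES pH 7.4. Peak fluorescence rise was expressed relative to buffer and standard agonist controls (BW245C, PGE2 or U-46619 by receptor); compounds were run 10^−5 to 10^−11 M in duplicate, n≧3.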

hTP = target: T3, hTP (Homo sapiens, UniProt P21731); experiment: FLIPR calcium signal, hTP; type: cell-based; conditions: Table 3, third part
T3 construct: expressed in transfected cells; host or cells: HEK-293(EBNA)
T3 sequence (P21731 1-343): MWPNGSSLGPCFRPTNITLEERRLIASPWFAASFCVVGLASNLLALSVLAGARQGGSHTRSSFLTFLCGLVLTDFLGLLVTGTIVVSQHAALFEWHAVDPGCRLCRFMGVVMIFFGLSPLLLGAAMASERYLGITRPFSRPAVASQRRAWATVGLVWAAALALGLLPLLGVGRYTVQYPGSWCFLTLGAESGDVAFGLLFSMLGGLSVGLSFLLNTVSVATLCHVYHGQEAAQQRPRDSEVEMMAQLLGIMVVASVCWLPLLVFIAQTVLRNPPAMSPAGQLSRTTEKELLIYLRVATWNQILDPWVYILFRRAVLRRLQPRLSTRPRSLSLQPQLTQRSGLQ
Protocol: (§5) HEK-293(EBNA) cells, stably expressing one type or subtype of recombinant human prostaglandin receptors (prostaglandin receptors expressed: hDP/Gqs5; hEP1; hEP2/Gqs5; hEP3A/Gqi5; hEP4/Gqs5; hFP; hIP; hTP), were cultured in 100 mm culture dishes in high-glucose DMEM medium containing 10% fetal bovine serum, 2 mM 1-glutamine, 250 μg/ml geneticin (G418) and 200 μg/ml hygromycin B as selection markers, and 100 units/ml penicillin G, 100 μg/ml streptomycin and 0.25 μg/ml amphotericin B. • (b) Calcium Signal Studies on the FLIPR™
(§6) Cells were seeded at a density of 5×10^4 cells per well in Biocoat® Poly-D-lysine-coated black-wall, clear-bottom 96-well plates (Becton-Dickinson) and allowed to attach overnight in an incubator at 37° C. Cells were then washed two times with HBSS-HEPES buffer (Hanks Balanced Salt Solution without bicarbonate and phenol red, 20 mM HEPES, pH 7.4) using a Denley Cellwash plate washer (Labsystems). After 45 minutes of dye-loading in the dark, using the calcium-sensitive dye Fluo-4 AM at a final concentration of 2 μM, plates were washed four times with HBSS-HEPES buffer to remove excess dye leaving 100 μl in each well. Plates were re-equilibrated to 37° C. for a few minutes.
(§7) Cells were excited with an Argon laser at 488 nm, and emission was measured through a 510-570 nm bandwidth emission filter (FLIPR™, Molecular Devices, Sunnyvale, Calif.). Drug solution was added in a 50 μl volume to each well to give the desired final concentration. The peak increase in fluorescence intensity was recorded for each well. On each plate, four wells each served as negative (HBSS-HEPES buffer) and positive controls (standard agonists: BW245C (hDP); PGE2 (hEP1; hEP2/Gqs5; hEP3A/Gqi5; hEP4/Gqs5); PGF2α (hFP); carbacyclin (hIP); U-46619 (hTP), depending on receptor). The peak fluorescence change in each drug-containing well was then expressed relative to the controls.
(§8) Compounds were tested in a high-throughput (HTS) or concentration-response (CoRe) format. In the HTS format, forty-four compounds per plate were examined in duplicates at a concentration of 10^−5 M. To generate concentration-response curves, four compounds per plate were tested in duplicates in a concentration range between 10^−5 and 10^−11 M. The duplicate values were averaged. In either, HTS or CoRe format each compound was tested on at least 3 separate plates using cells from different passages to give an n≧3.

hEP1 = target: T4, hEP1 (Homo sapiens, UniProt P34995); experiment: FLIPR calcium signal, hEP1; type: cell-based; conditions: Table 3, third part
T4 construct: expressed in transfected cells; host or cells: HEK-293(EBNA)
T4 sequence (P34995 1-402): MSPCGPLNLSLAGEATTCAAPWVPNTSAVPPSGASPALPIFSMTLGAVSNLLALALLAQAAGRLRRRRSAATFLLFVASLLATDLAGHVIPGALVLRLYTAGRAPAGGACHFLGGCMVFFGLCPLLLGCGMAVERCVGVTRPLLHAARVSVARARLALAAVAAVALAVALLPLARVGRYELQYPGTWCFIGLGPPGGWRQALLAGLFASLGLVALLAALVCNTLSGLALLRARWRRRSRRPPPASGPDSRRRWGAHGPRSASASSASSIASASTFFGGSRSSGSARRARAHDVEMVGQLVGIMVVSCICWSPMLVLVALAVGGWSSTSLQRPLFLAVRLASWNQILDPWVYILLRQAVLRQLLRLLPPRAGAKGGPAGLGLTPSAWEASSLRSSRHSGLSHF
Protocol: as §5, §6, §7, §8

hEP4/Gqs5 = target: T5, hEP4/Gqs5 (Homo sapiens, UniProt P35408); experiment: FLIPR calcium signal, hEP4; type: cell-based; conditions: Table 3, third part
T5 construct: expressed in transfected cells; host or cells: HEK-293(EBNA)
Summary of the method: as §4

hIP = target: T6, hIP (Homo sapiens, UniProt P43119); experiment: FLIPR calcium signal, hIP; type: cell-based; conditions: Table 3, third part
T6 construct: expressed in transfected cells; host or cells: HEK-293(EBNA)
Protocol: as §5, §6, §7, §8

hFP = target: T7, hFP (Homo sapiens, UniProt P43088); experiment: FLIPR calcium signal, hFP; type: cell-based; conditions: Table 3, third part
T7 construct: expressed in transfected cells; host or cells: HEK-293(EBNA)
Protocol: as §5, §6, §7
Compounds were tested in a high-throughput (HTS) or concentration-response (CoRe) format. […]

T6 sequence (P43119 whole entry): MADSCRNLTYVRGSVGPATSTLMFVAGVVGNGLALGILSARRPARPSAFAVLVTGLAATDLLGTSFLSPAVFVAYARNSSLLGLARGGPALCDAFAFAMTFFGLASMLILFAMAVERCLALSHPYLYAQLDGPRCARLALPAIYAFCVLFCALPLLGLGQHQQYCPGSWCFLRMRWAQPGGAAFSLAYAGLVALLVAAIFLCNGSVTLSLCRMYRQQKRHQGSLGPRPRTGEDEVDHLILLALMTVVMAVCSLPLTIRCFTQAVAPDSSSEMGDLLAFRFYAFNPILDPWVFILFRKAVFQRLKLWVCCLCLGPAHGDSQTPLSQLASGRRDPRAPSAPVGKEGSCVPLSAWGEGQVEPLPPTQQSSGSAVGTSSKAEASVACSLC
T7 sequence (P43088 whole entry): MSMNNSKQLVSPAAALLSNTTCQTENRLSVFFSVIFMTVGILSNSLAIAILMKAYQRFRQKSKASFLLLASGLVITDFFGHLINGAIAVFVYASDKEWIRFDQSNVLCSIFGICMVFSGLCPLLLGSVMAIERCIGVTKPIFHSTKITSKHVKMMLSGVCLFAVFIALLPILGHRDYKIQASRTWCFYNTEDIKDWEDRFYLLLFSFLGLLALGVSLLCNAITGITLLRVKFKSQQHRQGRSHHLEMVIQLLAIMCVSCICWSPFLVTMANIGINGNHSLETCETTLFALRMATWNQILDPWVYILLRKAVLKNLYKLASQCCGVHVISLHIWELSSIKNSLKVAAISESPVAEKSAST
T5 sequence (P35408 whole entry): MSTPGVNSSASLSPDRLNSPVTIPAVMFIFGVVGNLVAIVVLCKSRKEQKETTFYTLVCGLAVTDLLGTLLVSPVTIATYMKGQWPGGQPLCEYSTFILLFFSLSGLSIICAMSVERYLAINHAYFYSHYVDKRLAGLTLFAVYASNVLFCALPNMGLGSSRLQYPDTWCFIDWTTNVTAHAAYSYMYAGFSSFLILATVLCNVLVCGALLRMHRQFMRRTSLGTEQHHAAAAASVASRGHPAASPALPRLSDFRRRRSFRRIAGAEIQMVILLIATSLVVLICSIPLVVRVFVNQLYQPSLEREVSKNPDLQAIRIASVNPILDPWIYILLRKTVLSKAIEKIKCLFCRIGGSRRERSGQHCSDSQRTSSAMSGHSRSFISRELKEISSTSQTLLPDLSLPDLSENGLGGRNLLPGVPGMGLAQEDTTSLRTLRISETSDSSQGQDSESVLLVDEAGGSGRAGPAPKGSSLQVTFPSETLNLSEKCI
T2 sequence (P43116 whole entry): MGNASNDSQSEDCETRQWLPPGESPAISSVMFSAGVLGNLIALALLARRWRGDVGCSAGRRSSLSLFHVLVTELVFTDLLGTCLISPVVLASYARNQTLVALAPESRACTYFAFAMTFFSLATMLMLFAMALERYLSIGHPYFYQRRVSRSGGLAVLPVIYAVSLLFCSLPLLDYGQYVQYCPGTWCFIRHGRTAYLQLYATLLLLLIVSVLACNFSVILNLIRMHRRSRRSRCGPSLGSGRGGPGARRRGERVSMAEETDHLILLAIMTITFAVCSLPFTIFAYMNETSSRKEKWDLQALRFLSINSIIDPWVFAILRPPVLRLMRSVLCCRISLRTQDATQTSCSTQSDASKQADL

SMILES: O=C(O)CCC/C=C\C[C@@H]1[C@@H](c2ccc(C(O)C3CCCCC3)cc2)[C@H](O)C[C@H]1Cl (stereo partly drawn) [drawing 239]
DOG Max. hyperemia (Beagle dogs [1]; Conc. 0.10% (0.1%) g/100 mL): 1
DOG Max. ΔIOP (mm Hg) (Beagle dogs [2]; Conc. 0.10% (0.1%) g/100 mL): −4 mm Hg
RABBIT Max. hyperemia (rabbits; Conc. 0.10% (0.1%) g/100 mL): 0

SMILES: CC(C)C(O)c1ccc([C@@H]2[C@@H](CCCCCCC(=O)O)[C@H](Cl)C[C@H]2O)cc1 (stereo partly drawn)
Ki (HEP3): 3.02 µM
EC50 (hEP2/Gqs5): > 10 µM

SMILES: CC(C)OC(=O)CCCCCC[C@@H]1[C@@H](c2ccc(C(C)(C)C)cc2)[C@H](O)C[C@H]1Cl
MONKEY Max. ΔIOP (mm Hg) (monkeys; Conc. 0.01% g/100 mL): 8 mm Hg
RABBIT Max. hyperemia (rabbits; Conc. 0.01% g/100 mL): 0.1

SMILES: CCCCCC(O)c1ccc([C@@H]2[C@@H](C/C=C\CCCC(=O)O)[C@H](Cl)C[C@H]2Cl)cc1 (stereo partly drawn)
Ca2+ Signal-EC50 (nM) TP (hTP): not active
Ca2+ Signal-EC50 (nM) EP1 (hEP1): not active
Ca2+ Signal-EC50 (nM) EP4 (hEP4/Gqs5): not active
Ca2+ Signal-EC50 (nM) IP (hIP): not active
Ca2+ Signal-EC50 (nM) FP (hFP): not active

More lines, main results first:

DOG Max. hyperemia (Beagle dogs [1]; Conc. 0.30% g/100 mL): 1
SMILES: O=C(O)CCC/C=C\C[C@@H]1[C@@H](c2ccc3c(c2)CCC3O)[C@H](O)C[C@H]1Cl (stereo partly drawn)
DOG Max. ΔIOP (mm Hg) (Beagle dogs [2]; Conc. 0.30% g/100 mL): −7 mm Hg
MONKEY Max. ΔIOP (mm Hg) (monkeys; Conc. 0.30% g/100 mL): 7 mm Hg

DOG Max. hyperemia (Beagle dogs [1]; Conc. 0.01% g/100 mL): 0.6
SMILES: CC(C)OC(=O)CCC/C=C\C[C@@H]1[C@@H](c2ccc(C(O)C3CCCCC3)cc2)[C@H](O)C[C@H]1Cl (stereo partly drawn)
DOG Max. ΔIOP (mm Hg) (Beagle dogs [2]; Conc. 0.01% g/100 mL): −4 mm Hg
MONKEY Max. ΔIOP (mm Hg) (monkeys; Conc. 0.01% g/100 mL): 5 mm Hg

DOG Max. hyperemia (Beagle dogs [1]; Conc. 0.10% (0.1%) g/100 mL): 0.8
RABBIT Max. hyperemia (rabbits; Conc. 0.10% (0.1%) g/100 mL): 0
SMILES: CCCCCC(=O)c1ccc([C@@H]2[C@@H](C/C=C\CCCC(=O)OC(C)C)[C@H](Cl)C[C@H]2O)cc1
MONKEY Max. ΔIOP (mm Hg) (monkeys; Conc. 0.10% (0.1%) g/100 mL): 20 mm Hg
